Test results: ChEMBL document CHEMBL1201862, “PubChem BioAssay data set” (2004)
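96-well plates; 48 h exposure; 5 concentrations. Endpoints by linear interpolation between flanking doses. Not reached: highest tested concentration assigned. At the GI50, growth is halved.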 The source made the active and inactive calls. No stated cut-off is given here; in the data, active = GI50 up to about 1.1 µM and inactive = higher.

What was measured:
Assay in all cases: NCI-60 cell line screen, 48 h
K562 = tested on: K562
OVCAR-8 = tested on: OVCAR-8
TK-10 = tested on: TK-10
SK-MEL-5 = tested on: SK-MEL-5
PC-3 = tested on: PC-3
NCI/ADR-RES = tested on: NCI/ADR-RES
SR = tested on: SR
ACHN = tested on: ACHN
HOP-62 = tested on: HOP-62
SNB-19 = tested on: SNB-19
MDA-N = tested on: MDA-N
SF-295 = tested on: SF-295
CAKI-1 = tested on: CAKI-1
KM-20L2 = tested on: KM-20L2
CCRF-CEM = tested on: CCRF-CEM
OVCAR-3 = tested on: OVCAR-3
HT-29 = tested on: HT-29
T47D = tested on: T47D
IGROV-1 = tested on: IGROV-1
BT-549 = tested on: BT-549

Measured: GI50

O=NN(CCCl)C(=O)NC1CCC(=O)NC1=O (centres undefined)
inactive: K562 153 µM | OVCAR-8 50 µM | TK-10 379 µM | SK-MEL-5 121 µM | PC-3 745 µM | NCI/ADR-RES 193 µM | SR 25.4 µM | ACHN 428 µM | HOP-62 144 µM | SNB-19 112 µM | MDA-N 224 µM | SF-295 30.3 µM | CAKI-1 270 µM | KM-20L2 800 µM | CCRF-CEM 75.5 µM | OVCAR-3 818 µM | HT-29 807 µM | T47D 384 µM | IGROV-1 365 µM | BT-549 251 µM

C=CCNC(=O)/C=C\C(=O)O
inactive: K562 > 100 µM | OVCAR-8 > 100 µM | TK-10 > 100 µM | SK-MEL-5 > 100 µM | SR > 100 µM | ACHN > 100 µM | HOP-62 > 100 µM | SNB-19 > 100 µM | SF-295 > 100 µM | CAKI-1 > 100 µM | KM-20L2 > 100 µM | CCRF-CEM > 100 µM | OVCAR-3 > 100 µM | HT-29 > 100 µM | IGROV-1 > 100 µM

C[C@H]1COC2(c3ccccc3)CCC(=O)N12 (some centres undefined)
inactive: K562 > 100 µM | OVCAR-8 > 100 µM | TK-10 > 100 µM | SK-MEL-5 > 100 µM | SR > 100 µM | ACHN > 100 µM | HOP-62 > 100 µM | SNB-19 > 100 µM | SF-295 > 100 µM | CAKI-1 > 100 µM | KM-20L2 > 100 µM | CCRF-CEM > 100 µM | OVCAR-3 > 100 µM | HT-29 > 100 µM | IGROV-1 > 100 µM

CCC[S+]([O-])c1nc(COC(=O)NC)c(COC(=O)NC)n1C (centres undefined)
inactive: K562 > 100 µM | OVCAR-8 > 100 µM | SK-MEL-5 > 100 µM | NCI/ADR-RES > 100 µM | SR > 100 µM | HOP-62 > 100 µM | SNB-19 > 100 µM | SF-295 > 100 µM | CAKI-1 > 100 µM | KM-20L2 > 100 µM | CCRF-CEM > 100 µM | OVCAR-3 > 100 µM | HT-29 > 100 µM | IGROV-1 > 100 µM
